Experimental data from US20100324036A1, “SUBSTITUTED IMIDAZOPYRIDINE DERIVATIVES AS MELANOCORTIN-4 RECEPTOR ANTAGONISTS” (SANTHERA PHARMACEUTICALS (SCHWEIZ) AG, priority 2007, published 2010).

Legend:
[1] = biological target: T1, hMC-4R (Homo sapiens, UniProt P32245); experiment: Membrane binding assay, competition with fluorescence labeled NDP-alpha-MSH (fluorescence polarization); design: expressed in transfected cells; host or cells: HEK293 cells (membrane preparations); conditions: HEK293 cell membrane preparations
T1 sequence (P32245 whole entry): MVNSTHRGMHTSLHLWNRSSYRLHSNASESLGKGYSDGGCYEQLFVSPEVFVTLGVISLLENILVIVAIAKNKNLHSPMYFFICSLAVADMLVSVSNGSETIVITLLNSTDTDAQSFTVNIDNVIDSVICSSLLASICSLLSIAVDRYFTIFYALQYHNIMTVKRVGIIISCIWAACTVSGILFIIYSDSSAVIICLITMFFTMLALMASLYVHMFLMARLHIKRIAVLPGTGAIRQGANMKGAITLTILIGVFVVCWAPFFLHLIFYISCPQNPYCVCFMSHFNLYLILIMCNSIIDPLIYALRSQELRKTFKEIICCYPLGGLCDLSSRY

[2] = biological target: T1, hMC-4R; experiment: Functional assay, cAMP formation in HEK293 membrane preparations (fluorescence polarization)

Compound	IC50 [1]	EC50 [2]
COCc1noc(-c2nc3ccc(C(=O)N(CCC(C)C)CCC(C)C)cn3c2CCCN(C)C)n1 [Example 16]	100 to 1000 nM	
COCCOC(=O)c1nc2ccc(C(=O)N(CCC(C)C)CCC(C)C)cn2c1CCCN1CCCC1 [Example 19]	< 100 nM	
CC(C)CCN(CCC(C)C)C(=O)c1ccc2nc(-c3nc(C4CC4)no3)c(CCCN3CCCC3)n2c1 [Example 12]	< 100 nM	
CC(C)CCN(CCC(C)C)C(=O)c1ccc2nc(C#N)c(CCCN3CCCC3)n2c1 [Example 8]	> 1000 nM	100 to 1000 nM
Cc1noc(-c2nc3ccc(C(=O)N(CCC(C)C)CCC(C)C)cn3c2CCCN(C)C)n1 [Example 17]	100 to 1000 nM	
CC(C)CCN(CCC(C)C)C(=O)c1ccc2nc(CCCN)c(CCCN3CCCC3)n2c1 [Example 28]	< 100 nM	
CC(C)CCN(CCC(C)C)C(=O)c1ccc2nc(CO)c(CCCN3CCCC3)n2c1 [Example 5]	100 to 1000 nM	
COCc1noc(-c2nc3ccc(C(=O)N(CCC(C)C)CCC(C)C)cn3c2CCCN2CCCC2)n1 [Example 9]	< 100 nM	100 to 1000 nM
CCOC(=O)CCc1nc2ccc(C(=O)N(CCC(C)C)CCC(C)C)cn2c1CCCN(C)C [Example 14]	100 to 1000 nM	
CC(C)CCN(CCC(C)C)C(=O)c1ccc2nc(-c3nc(C(C)(C)O)no3)c(CCCN3CCCC3)n2c1 [Example 11]	100 to 1000 nM	
CNC(=O)c1nc2ccc(C(=O)N(CCC(C)C)CCC(C)C)cn2c1CCCN1CCCC1 [Example 3]	100 to 1000 nM	
CC(C)CCN(CCC(C)C)C(=O)c1ccc2nc(CNc3ccc4c(c3)OCO4)c(CCCN3CCCC3)n2c1 [Example 22]	< 100 nM	
CCOC(=O)c1nc2ccc(C(=O)N(CCC(C)C)CCC(C)C)cn2c1CCCN1CCCC1 [Example 1]	< 100 nM	
CC(C)CCN(CCC(C)C)C(=O)c1ccc2nc(C(=O)N3CCN(C)CC3)c(CCCN3CCCC3)n2c1 [Example 29]	100 to 1000 nM	
CC(C)CCN(CCC(C)C)C(=O)c1ccc2nc(C(=O)OC(C)C)c(CCCN3CCCC3)n2c1 [Example 7]	100 to 1000 nM	100 to 1000 nM
COc1cccc(N(C)c2nc3ccc(C(=O)N(CCC(C)C)CCC(C)C)cn3c2CCCN2CCCC2)c1 [Example 23]	100 to 1000 nM	
CC(C)CCN(CCC(C)C)C(=O)c1ccc2nc(N(C)c3ccccn3)c(CCCN3CCCC3)n2c1 [Example 21]	100 to 1000 nM	
CC(C)CCN(CCC(C)C)C(=O)c1ccc2nc(C(=O)N3CCCC3)c(CCCN3CCCC3)n2c1 [Example 2]	100 to 1000 nM	
CC(C)CCN(CCC(C)C)C(=O)c1ccc2nc(-c3nc(C(C)(C)O)no3)c(CCCN(C)C)n2c1 [Example 18]	100 to 1000 nM	100 to 1000 nM
CC(C)CCN(CCC(C)C)C(=O)c1ccc2nc(C3CC3)c(CCCN3CCCC3)n2c1 [Example 6]	100 to 1000 nM	
CC(C)CCN(CCC(C)C)C(=O)c1ccc2nc(-c3ccc4nccn4c3)c(CCCN3CCCC3)n2c1 [Example 24]	< 100 nM	
CC(C)CCN(CCC(C)C)C(=O)c1ccc2nc(CCCNC(=O)OC(C)(C)C)c(CCCN3CCCC3)n2c1 [Example 26]	< 100 nM	
CC(C)CCN(CCC(C)C)C(=O)c1ccc2nc(-c3n[nH]c(=O)n3C)c(CCCN3CCCC3)n2c1 [Example 13]	100 to 1000 nM	
Cc1noc(-c2nc3ccc(C(=O)N(CCC(C)C)CCC(C)C)cn3c2CCCN2CCCC2)n1 [Example 10]	< 100 nM	< 100 nM
CC(C)CCN(CCC(C)C)C(=O)c1ccc2nc(C(=O)OCC(C)C)c(CCCN3CCCC3)n2c1 [Example 20]	< 100 nM	
CCOC(=O)c1nc2ccc(C(=O)N(CCC(C)C)CCC(C)C)cn2c1CCCN(C)C [Example 15]	100 to 1000 nM	
CC(C)CCN(CCC(C)C)C(=O)c1ccc2nc(CCCN(C)C)c(CCCN3CCCC3)n2c1 [Example 27]	< 100 nM	100 to 1000 nM
CCNC(=O)c1nc2ccc(C(=O)N(CCC(C)C)CCC(C)C)cn2c1CCCN1CCCC1 [Example 4]	100 to 1000 nM	
